# Measured values: publication PMC11352099 (RSC Medicinal Chemistry, 2024)
# “And” between values parts separate entries of the source, which are not always exact repeats. Identical values can stand only once. Like-named read-outs stand apart in the source and are kept apart here.
# Assays:
# SARS-CoV-2 nsp14 MTase = SARS-CoV-2 nsp14 MTase (Severe acute respiratory syndrome coronavirus 2, UniProt P0DTD1); test: biochemical; assay type: biochemical; details: for Hill slope: Table S1, dose-response curve, variable slope model
# human RNMT = human RNMT (Homo sapiens, UniProt O43148); test: Off-target inhibition of human RNMT; assay type: biochemical; details: 25 μM concentration of inhibitor
# Chain of human RNMT (O43148 whole entry): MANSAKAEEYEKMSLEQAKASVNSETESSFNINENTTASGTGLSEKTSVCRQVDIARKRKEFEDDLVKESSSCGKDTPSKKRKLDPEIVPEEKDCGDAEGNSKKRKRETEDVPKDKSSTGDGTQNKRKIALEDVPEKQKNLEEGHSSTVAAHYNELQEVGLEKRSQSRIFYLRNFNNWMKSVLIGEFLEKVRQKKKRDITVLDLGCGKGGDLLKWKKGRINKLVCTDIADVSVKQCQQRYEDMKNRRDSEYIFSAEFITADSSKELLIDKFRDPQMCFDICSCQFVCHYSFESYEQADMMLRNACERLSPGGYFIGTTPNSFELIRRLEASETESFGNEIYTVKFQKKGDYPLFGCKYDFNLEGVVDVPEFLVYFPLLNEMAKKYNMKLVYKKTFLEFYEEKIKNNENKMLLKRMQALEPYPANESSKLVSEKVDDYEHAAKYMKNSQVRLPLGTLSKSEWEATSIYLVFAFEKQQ
# From the text: Human cells rely on several MTases; therefore, it is necessary to assess the possible off-target effect. […]
# in vitro = details: human
# Description: (§1) 3.5. Caco-2 permeability assay
# (§2) Transepithelial bi-directional transport of compounds (10 µM, pH 7.4/7.4) was tested on 21-day differentiated Caco-2 monolayers. Briefly, the cells were seeded at a density of 67 ,500 cells per 96-well plate insert (Millicell®, Merck KGaA, Darmstadt, Germany). They were left to differentiate for 21 days with medium exchange every 2–3 days. Prior to the experiment, the medium from both apical and basolateral well was exchanged for HBSS buffer (containing 10 mM HEPES and 25 mM glucose) and left to equilibrate for 30 min. Compound permeability was assayed by replacing pure HBSS with HBSS containing 10 μM compounds and 220 μM Lucifer yellow (LY) solution in an apical insert (A to B transport) or in a basolateral well (B to A transport). The tre ated cells were then returned to the incubator for 2 h at 37 °C. After that, samples were collected from both apical inserts and basolateral wells and analyzed using LC -MS/MS (SCIEX Triple Quad™ 7500 QTRAP® Ready). LC separation was done on Synergi 4µm Fusion 50 × 2 mm column (Phenomenex) using a water/acetonitrile gradient with 0.1% formic acid starting from 2 to 98% for 4.5 min.
# (§3) The apparent permeability coefficient (Papp) was calculated from t he following equation: Papp = (dQ / dt) / C0 * A, where dQ/dt is the rate of absorption of the drug across the cells, C0 is the donor compartment concentration at time zero, and A is the area of the monolayer. Efflux ratio was expressed as (Papp B -A) / (Papp A-B). Recovery (%) was determined as (total compound mass i n donor and receiver compartments at the end of the incubation / initial compound mass in the donor compartment) x 100. The data represent means ± SD of two independent experiments performed in triplicate. […]
# (§4) were used as control compounds.
# Caco-2 monolayers = test: in vitro; details: Caco-2
# Description: as §1, §2, §3, §4
# [1] = tested on: SARS-CoV-2 strain hCoV-19/Czech Republic/NRL_6632_2/2020; test: microbe, parasite or virus in culture; assay type: cell-based; details: Severe acute respiratory syndrome coronavirus 2; Calu-3 cell line; read-out: EC50 (antiviral effect)
# [2] = 120 min, 10 μM
# [3] = 120 min, 10 μM; remark: listed apart in the source
# [4] = microsomes, 0.75 h, 10 µM, pH 7.4
# [5] = microsomes, 0.75 h, 10 µM, pH 7.4; remark: listed apart in the source
# [6] = Table 1 and text, N.I., no inhibition, read-out: IC50
# [7] = Table 1 and text, N.I., no inhibition
# [8] = Table S1, read-out: IC50 (inhibitory activity)
structure (smiles),measurement,setting,value
COC(=O)c1ccc(NC(=O)[C@H]2O[C@@H](n3cnc4c(N)ncnc43)[C@H](O)[C@@H]2O)cc1 [12a],IC50,SARS-CoV-2 nsp14 MTase; [6],> 25000 nM
NC(=O)c1ccc(NC(=O)[C@H]2O[C@@H](n3cnc4c(N)ncnc43)[C@H](O)[C@@H]2O)cc1 [12b],IC50,SARS-CoV-2 nsp14 MTase; [7],N.I.
COc1cccc(NC(=O)[C@H]2O[C@@H](n3cnc4c(N)ncnc43)[C@H](O)[C@@H]2O)c1 [12c],IC50,SARS-CoV-2 nsp14 MTase; [7],N.I.
COc1ccc(NC(=O)[C@H]2O[C@@H](n3cnc4c(N)ncnc43)[C@H](O)[C@@H]2O)cc1O [12d],IC50,SARS-CoV-2 nsp14 MTase; [6],> 25000 nM
Cc1ccc(NC(=O)[C@H]2O[C@@H](n3cnc4c(N)ncnc43)[C@H](O)[C@@H]2O)cc1O [12e],IC50,SARS-CoV-2 nsp14 MTase; [7],N.I.
COC(=O)c1cc(NC(=O)[C@H]2O[C@@H](n3cnc4c(N)ncnc43)[C@H](O)[C@@H]2O)ccc1F [12f],IC50,SARS-CoV-2 nsp14 MTase; [7],N.I.
"Nc1ncnc2c1ncn2[C@@H]1O[C@H](C(=O)Nc2ccc(-c3ccoc3)cc2)[C@@H](O)[C@H]1O [12g, (2S,3S,4R,5R)-5-(6-Amino-9H-purin-9-yl)-N-(4-(furan-3-yl)phenyl)-3,4-dihydroxytetrahydrofuran-2-carboxamide]",IC50,SARS-CoV-2 nsp14 MTase; [7],N.I.
Nc1ncnc2c1ncn2[C@@H]1O[C@H](C(=O)Nc2ccc(-c3ccsc3)cc2)[C@@H](O)[C@H]1O [12h],IC50,SARS-CoV-2 nsp14 MTase; [7],N.I.
Nc1ncnc2c1ncn2[C@@H]1O[C@H](C(=O)Nc2ccc(-c3cn[nH]c3)cc2)[C@@H](O)[C@H]1O [12i],IC50,SARS-CoV-2 nsp14 MTase; [7],N.I.
Cc1noc(C)c1-c1ccc(NC(=O)[C@H]2O[C@@H](n3cnc4c(N)ncnc43)[C@H](O)[C@@H]2O)cc1 [12j],IC50,SARS-CoV-2 nsp14 MTase; [7],N.I.
Nc1ncnc2c1ncn2[C@@H]1O[C@H](C(=O)Nc2ccc3c(c2)OCCO3)[C@@H](O)[C@H]1O [12k],IC50,SARS-CoV-2 nsp14 MTase; [6],1800 nM and 1810 nM
same,Hill slope,SARS-CoV-2 nsp14 MTase,-1.01
same,IC50,SARS-CoV-2 nsp14 MTase; [8],1810 nM
Cc1cc(=O)oc2cc(NC(=O)[C@H]3O[C@@H](n4cnc5c(N)ncnc54)[C@H](O)[C@@H]3O)ccc12 [12l],IC50,SARS-CoV-2 nsp14 MTase; [6],360 ± 40 nM
same,Hill slope,SARS-CoV-2 nsp14 MTase,-1.39
same,IC50,SARS-CoV-2 nsp14 MTase; [8],364 nM
same,inhibitory activity against RNMT,human RNMT,None of the tested compounds exhibited any inhibitory activity
same,"efflux ratio at 2 h, 10 µM",in vitro; Caco-2,3.4
same,"recovery at 2 h, 10 µM","in vitro; Caco-2, Recovery (%) A-B",85%
same,"recovery at 2 h, 10 µM","in vitro; Caco-2, Recovery (%) B-A",83%
same,"Papp A→B at 2 h, 10 µM","in vitro; Caco-2, pH 7.4",3.1 ± 1.3 ×10⁻⁶ cm/s
same,"Papp B→A at 2 h, 10 µM","in vitro; Caco-2, pH 7.4",10.7 ± 2.5 ×10⁻⁶ cm/s
same,Papp A-B,Caco-2 monolayers,3.1 ± 1.3 cm/s x 10-6
same,Papp B-A,Caco-2 monolayers,10.7 ± 2.5 cm/s x 10-6
same,EC50,[1],> 50000 nM
same,"Plasma stability % of the parent compound after 120 min, Human",[2],103 ± 3.3%
same,"Plasma stability % of the parent compound after 120 min, Mouse",[3],93 ± 2.7%
same,"Microsomal stability % of the parent compound after 45 min, Human",[4],104 ± 4.1%
same,"Microsomal stability % of the parent compound after 45 min, Mouse",[5],95 ± 5.0%
